# In patent US12780800B1, “Triazole-pyridinyl substituted azacyclohexyl acetic acid compounds as LPA receptor antagonists” (Viva Star Biosciences Limited, priority 2021, dated 2022):
# Biological target: T1, LPA1 (Homo sapiens, UniProt Q92633)
# T1 construct: ProLink (PK) beta-galactosidase enzyme-fragment tag; host or cells: CHO-K1
# Assay: LPA1 calcium flux assay (LPA1 functional antagonist assay)
# Assay type: cell-based
# Settings: PathHunter CHO-K1 EDG2 β-Arrestin cell line; calcium indicator dye; stimulated with EC80 concentration of LPA; FLIPR Tetra
# Procedure: Following overnight culture, cells were loaded with calcium indicator dye from the HitHunter Calcium No WashPLUS Assay kit (Eurofins DiscoverX Corporation, Cat #93-0091) for 45 minutes at 37° C. […] After compound addition, assay plates were equilibrated to room temperature for 30 minutes. […] IC50 values were determined by Chemical and Biological Information System from ChemInnovation Software, Inc. The compounds of this invention were tested for their activity to inhibit LPA1 as determined in an LPA1 functional antagonist assay as described herein.
# T1 sequence (Q92633 whole entry, the tested form may be a part): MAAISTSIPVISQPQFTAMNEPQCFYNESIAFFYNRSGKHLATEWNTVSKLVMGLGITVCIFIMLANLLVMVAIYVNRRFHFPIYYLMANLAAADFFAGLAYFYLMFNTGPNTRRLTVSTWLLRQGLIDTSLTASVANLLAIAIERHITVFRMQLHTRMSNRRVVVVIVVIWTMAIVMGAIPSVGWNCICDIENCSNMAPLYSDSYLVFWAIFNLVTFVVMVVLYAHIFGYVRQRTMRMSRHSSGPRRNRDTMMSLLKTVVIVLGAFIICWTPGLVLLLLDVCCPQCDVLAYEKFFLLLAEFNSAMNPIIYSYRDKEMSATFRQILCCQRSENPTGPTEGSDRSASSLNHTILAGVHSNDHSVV
row,IC50 [nM],Structure (SMILES)
1,500 to 5000,"CCCc1ccc(=O)n(Cc2c(-c3ncc(CN4CC(C(=O)O)CC(F)(F)C4)c(CC)n3)cnn2C)c1 (single isomer, unassigned) [Example 161, (R) or (S)-1-((4-ethyl-2-(1-methyl-5-((2-oxo-5-propylpyridin-1(2H)-yl)methyl)-1H-pyrazol-4-yl)pyrimidin-5-yl)methyl)-5,5-difluoropiperidine-3-carboxylic acid]"
2,< 100,"CCc1nc(-c2nnn(C)c2CNc2nccc(C3CCC3)n2)ccc1CN1CC(C(=O)O)CC(F)(F)C1 (single isomer, unassigned) [Example 162, (S) or (R)-1-((6-(5-(((4-cyclobutylpyrimidin-2-yl)amino)methyl)-1-methyl-1H-1,2,3-triazol-4-yl)-2-ethylpyridin-3-yl)methyl)-5,5-difluoropiperidine-3-carboxylic acid]"
3,100 to 500,"CCc1nc(-c2nnn(C)c2CNc2nccc(C3CCC3)n2)ccc1CN1CC(C(=O)O)CC(F)(F)C1 (single isomer, unassigned) [Example 163, (R) or (S)-1-((6-(5-(((4-cyclobutylpyrimidin-2-yl)amino)methyl)-1-methyl-1H-1,2,3-triazol-4-yl)-2-ethylpyridin-3-yl)methyl)-5,5-difluoropiperidine-3-carboxylic acid]"
4,> 5000,"CCCN(C)C(=O)OCc1c(-c2ccc(CN3CC(C(=O)O)CC(F)(F)C3)c(CC)n2)nnn1C (single isomer, unassigned) [Example 164, 1-((2-ethyl-6-(1-methyl-5-(((methyl(propyl)carbamoyl)oxy)methyl)-1H-1,2,3-triazol-4-yl)pyridin-3-yl)methyl)-5,5-difluoropiperidine-3-carboxylic acid]"
5,100 to 500,"CCCN(C)C(=O)OCc1c(-c2ccc(CN3CC(C(=O)O)CC(F)(F)C3)c(CC)n2)nnn1C (single isomer, unassigned) [Example 165, 1-((2-ethyl-6-(1-methyl-5-(((methyl(propyl)carbamoyl)oxy)methyl)-1H-1,2,3-triazol-4-yl)pyridin-3-yl)methyl)-5,5-difluoropiperidine-3-carboxylic acid]"
6,500 to 5000,"Cc1nc(-c2nnn(C)c2Cn2ccc(CC3CC3)c(C)c2=O)ccc1N1CC(CC(=O)O)CC(F)(F)C1 (stereo in doubt) [Example 3, (S)-2-(1-(6-(5-((4-(cyclopropylmethyl)-3-methyl-2-oxopyridin-1(2H)-yl)methyl)-1-methyl-1H-1,2,3-triazol-4-yl)-2-methylpyridin-3-yl)-5,5-difluoropiperidin-3-yl)acetic acid]"
7,> 5000,"CCCc1cn(Cc2c(-c3ccc(N4C[C@@H](CC(=O)O)CC(F)(F)C4)c(C)n3)nnn2C)ccc1=O (stereo in doubt) [Example 43, (S)-2-(5,5-difluoro-1-(2-methyl-6-(1-methyl-5-((4-oxo-3-propylpyridin-1(4H)-yl)methyl)-1H-1,2,3-triazol-4-yl)pyridin-3-yl)piperidin-3-yl)acetic acid]"
8,> 5000,"CCCc1ccc(=O)n(Cc2c(-c3cnc(N4C[C@H](CC(=O)O)CC(F)(F)C4)cn3)nnn2C)c1 (stereo in doubt) [Example 56, (R)-2-(5,5-difluoro-1-(5-(1-methyl-5-((2-oxo-5-propylpyridin-1(2H)-yl)methyl)-1H-1,2,3-triazol-4-yl)pyrazin-2-yl)piperidin-3-yl)acetic acid]"
9,< 100,"CCc1nc(-c2nnn(C)c2Cn2cc(CC(C)C)n(C)c2=O)ccc1N1C[C@H](CC(=O)O)CC(F)(F)C1 (stereo in doubt) [Example 66, 2-[(3R)-1-[2-ethyl-6-(1-methyl-5-{[3-methyl-4-(2-methylpropyl)-2-oxo-2,3-dihydro-1H-imidazol-1-yl]methyl}-1H-1,2,3-triazol-4-yl)pyridin-3-yl]-5,5-difluoropiperidin-3-yl]acetic acid]"
10,500 to 5000,"CCc1nc(-c2nnn(C)c2CN2C[C@H](CC3CC3)OC2=O)ccc1N1C[C@H](CC(=O)O)CC(F)(F)C1 (stereo in doubt) [Example 69, 2-((R)-1-(6-(5-(((S)-5-(cyclopropylmethyl)-2-oxooxazolidin-3-yl)methyl)-1-methyl-1H-1,2,3-triazol-4-yl)-2-ethylpyridin-3-yl)-5,5-difluoropiperidin-3-yl)acetic acid]"
11,> 5000,"Cc1nc(-c2nnn(C)c2CN2CCN(CC3CC3)C2=O)ccc1N1CC(CC(=O)O)CC(F)(F)C1 (stereo in doubt) [Example 70, (R)-2-(1-(6-(5-((3-(cyclopropylmethyl)-2-oxoimidazolidin-1-yl)methyl)-1-methyl-1H-1,2,3-triazol-4-yl)-2-methylpyridin-3-yl)-5,5-difluoropiperidin-3-yl)acetic acid]"
12,500 to 5000,"CCc1nc(-c2nnn(C)c2CNc2nncc(C3CC3)n2)ccc1N1C[C@H](CC(=O)O)CC(F)(F)C1 (stereo in doubt) [Example 112, (R)-2-(1-(6-(5-(((5-cyclopropyl-1,2,4-triazin-3-yl)amino)methyl)-1-methyl-1H-1,2,3-triazol-4-yl)-2-ethylpyridin-3-yl)-5,5-difluoropiperidin-3-yl)acetic acid]"
13,> 5000,"CCc1nc(-c2nnn(C)c2COc2noc(C3CC3)n2)ccc1N1CC(CC(=O)O)CC(F)(F)C1 (stereo in doubt) [Example 114, (R)-2-(1-(6-(5-(((5-cyclopropyl-1,2,4-oxadiazol-3-yl)oxy)methyl)-1-methyl-1H-1,2,3-triazol-4-yl)-2-ethylpyridin-3-yl)-5,5-difluoropiperidin-3-yl)acetic acid]"
14,> 5000,"CCc1nc(-c2nnn(C)c2CNc2noc(C3CC3)n2)ccc1N1CC(CC(=O)O)CC(F)(F)C1 (stereo in doubt) [Example 115, (R)-2-(1-(6-(5-(((5-cyclopropyl-1,2,4-oxadiazol-3-yl)amino)methyl)-1-methyl-1H-1,2,3-triazol-4-yl)-2-ethylpyridin-3-yl)-5,5-difluoropiperidin-3-yl)acetic acid]"
15,500 to 5000,"CCCc1cc(C)c(=O)n(Cc2c(-c3ccc(N4C[C@@H](CC(=O)O)CC(F)(F)C4)c(C)n3)nnn2C)c1 [Example 1, (S)-2-(5,5-difluoro-1-(2-methyl-6-(1-methyl-5-((3-methyl-2-oxo-5-propylpyridin-1(2H)-yl)methyl)-1H-1,2,3-triazol-4-yl)pyridin-3-yl)piperidin-3-yl)acetic acid]"
16,500 to 5000,"Cc1nc(-c2nnn(C)c2Cn2ccc(CC3CC3)c(C)c2=O)ccc1N1C[C@@H](CC(=O)O)CC(F)(F)C1 [Example 2, (S)-2-(1-(6-(5-((4-(cyclopropylmethyl)-3-methyl-2-oxopyridin-1(2H)-yl)methyl)-1-methyl-1H-1,2,3-triazol-4-yl)-2-methylpyridin-3-yl)-5,5-difluoropiperidin-3-yl)acetic acid]"
17,100 to 500,"CCCc1ccc(=O)n(Cc2c(-c3ccc(N4C[C@@H](CC(=O)O)CC(F)(F)C4)c(C)n3)nnn2C)c1 [Example 4, (S)-2-(5,5-difluoro-1-(2-methyl-6-(1-methyl-5-((2-oxo-5-propylpyridin-1(2H)-yl)methyl)-1H-1,2,3-triazol-4-yl)pyridin-3-yl)piperidin-3-yl)acetic acid]"
18,> 5000,"CCCc1cccn(Cc2c(-c3ccc(N4C[C@@H](CC(=O)O)CC(F)(F)C4)c(C)n3)nnn2C)c1=O [Example 5, (S)-2-(5,5-difluoro-1-(2-methyl-6-(1-methyl-5-((2-oxo-3-propylpyridin-1(2H)-yl)methyl)-1H-1,2,3-triazol-4-yl)pyridin-3-yl)piperidin-3-yl)acetic acid]"
